biological target: T1, TGFβ R1 (Homo sapiens, UniProt P36897); assay: TGFβ R1 autophosphorylation protocol (33P-ATP, phosphocellulose filter plate); type: biochemical; conditions: 10 uM ATP, 170 nM TGFβ R1, 20 minutes at room temperature, read-out: IC50 for Kinase Inhibition
T1 sequence (P36897 34-503): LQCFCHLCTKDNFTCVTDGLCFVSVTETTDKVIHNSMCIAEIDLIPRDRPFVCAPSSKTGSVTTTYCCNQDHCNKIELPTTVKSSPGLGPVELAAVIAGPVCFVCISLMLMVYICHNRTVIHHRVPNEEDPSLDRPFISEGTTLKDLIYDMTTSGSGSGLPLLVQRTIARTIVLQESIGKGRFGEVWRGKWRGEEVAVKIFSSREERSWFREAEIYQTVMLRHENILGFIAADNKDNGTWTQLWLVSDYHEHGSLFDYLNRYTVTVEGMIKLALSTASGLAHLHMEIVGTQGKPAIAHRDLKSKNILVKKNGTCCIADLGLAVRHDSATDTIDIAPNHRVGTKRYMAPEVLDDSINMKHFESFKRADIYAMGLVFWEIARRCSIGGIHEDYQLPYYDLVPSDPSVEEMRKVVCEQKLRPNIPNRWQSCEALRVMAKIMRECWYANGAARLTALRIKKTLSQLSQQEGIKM
How it was run: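 Incorporation of 33P from γ-33P-ATP (10 uM ATP final) into the kinase itself (170 nM) measured by phosphocellulose capture and scintillation counting. Incubation 20 min at room temperature in 20 mM MOPS pH 7 with […]; final DMSO ≤1%.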

| SMILES | IC50 |
| --- | --- |
| COc1cnc(-c2cc(Cl)ccc2F)nc1Nc1ccncc1C(=O)NC1CC1CO (stereo not drawn) [Compound 141, 4-[2-(5-Chloro-2-fluoro-phenyl)-5-methoxy-pyrimidin-4-ylamino]-N-(2-hydroxymethyl-cyclopropyl)-nicotinamide] | 38 nM |
| CC(C)c1cnc(-c2cc(Cl)ccc2F)nc1Nc1ccncc1C(=O)N[C@H]1CCC[C@@H]1O [Compound 83, 4-[2-(5-Chloro-2-fluoro-phenyl)-5-isopropyl-pyrimidin-4-ylamino)-N-(2-hydroxy-cyclopentyl)-nicotinamide] | 230 nM |
| COc1cnc(-c2cc(Cl)ccc2F)nc1Nc1ccncc1C(=O)NCCCN/C(=N/C#N)N1CCOCC1 [Compound 43] | 60 nM |
| CC(C)c1cnc(-c2cc(Cl)ccc2F)nc1Nc1ccncc1C(=O)NC1CNC1 [Compound 111, N-Azetidin-3-yl-4-[2-(5-chloro-2-fluoro-phenyl)-5-isopropyl-pyrimidin-4-ylamino]-nicotinamide] | 20 nM |
| COc1cnc(-c2cc(Cl)ccc2F)nc1Nc1ccncc1C(=O)NC1CCN(C(=O)OC(C)(C)C)C1 (stereo not drawn) [Compound 82, 3-((4-[2-(5-Chloro-2-fluoro-phenyl)-5-methoxy-pyrimidin-4-ylamino]-pyridine-3-carbonyl)-amino)-pyrrolidine-1-carboxylic acid tert-butyl ester] | 310 nM |
| COc1cnc(-c2cc(Cl)ccc2F)nc1Nc1ccncc1C(=O)NCCCN(C)C [Compound 7, 4-[2-(5-Chloro-2-fluoro-phenyl)-5-methoxy-pyrimidin-4-ylamino]-N-(3-dimethylamino-propyl)-nicotinamide] | 30 nM |
| CNCCNC(=O)c1cnccc1Nc1nc(-c2cc(Cl)ccc2F)ncc1N1CCCC1 [Compound 22, 4-[2-(5-Chloro-2-fluoro-phenyl)-5-pyrrolidin-1-yl-pyrimidin-4-ylamino]-N-(2-methylamino-ethyl)-nicotinamide] | 100 nM |
| COc1cnc(-c2cc(Cl)ccc2F)nc1Nc1ccncc1C(=O)NCCCNC(=O)CO[C@H]1O[C@H](CO)[C@H](O)[C@H](O)[C@H]1O [Compound 140, 4-[2-(5-Chloro-2-fluoro-phenyl)-5-methoxy-pyrimidin-4-ylamino]-N-{3-[2-(3,4,5-trihydroxy-6-hydroxymethyl-tetrahydro-pyran-2-yloxy)-acetylamino]-propyl}-nicotinamide] | 44 nM |
| COc1cnc(-c2cc(Cl)ccc2F)nc1Nc1ccncc1C(=O)NCCCNC(=O)OC(C)(C)C [Compound 33, [3-({4-[2-(5-Chloro-2-fluoro-phenyl)-5-methoxy-pyrmidin-4-ylamino]-pyridine-3-carbonyl}-amino)-propyl]-carbamic acid tert-butyl ester] | 1130 nM |
| COc1cnc(-c2cc(Cl)ccc2F)nc1Nc1ccncc1C(=O)NCCNCC(F)(F)F [Compound 103, 4-[2-(5-Chloro-2-fluoro-phenyl)-5-methoxy-pyrimidin-4-ylamino]-N-[2-(2,2,2-trifluoro-ethylamino)-ethyl]-nicotinamide] | 130 nM |
| COc1cnc(-c2cc(Cl)ccc2F)nc1Nc1ccncc1C(=O)NCCNC(=O)COC1O[C@H](CO)[C@@H](O)[C@H](O)[C@H]1O (stereo partly drawn) [Compound 145, 4-[2-(5-Chloro-2-fluoro-phenyl)-5-methoxy-pyrimidin-4-ylamino]-N-{2-[2-(3,4,5-trihydroxy-6-hydroxymethyl-tetrahydro-pyran-2-yloxy)-acetylamino]-ethyl)-nicotinamide] | 53 nM |
| CC(C)c1cnc(-c2cc(Cl)ccc2F)nc1Nc1ccncc1C(=O)N[C@H](CO)[C@@H](C)O [Compound 84, 4-[2-(5-Chloro-2-fluoro-phenyl)-5-isopropyl-pyrimidin-4-ylamino]-N-(2-hydroxy-1-hydroxymethyl-propyl)-nicotinamide] | 1730 nM |
| COC[C@H]1OC(CCNCCCNC(=O)c2cnccc2Nc2nc(-c3cc(Cl)ccc3F)ncc2OC)[C@H](OC)[C@@H](OC)[C@@H]1OC (stereo partly drawn) [Compound 124, 4-[2-(5-Chloro-2-fluoro-phenyl)-5-methoxy-pyrimidin-4-ylamino]-N-{3-[2-(3,4,5-trimethoxy-6-methoxymethyl-tetrahydro-pyran-2-yl)-ethylamino]-propyl}-nicotinamide] | 42 nM |
| COc1cnc(-c2cc(Cl)ccc2F)nc1Nc1ccncc1C(=O)NCCNCC(C)O (stereo not drawn) [Compound 5] | 20 nM |
| COc1cnc(-c2cc(Cl)ccc2F)nc1Nc1ccncc1C(=O)NCCCN1CC[C@H](O)C1 [Compound 109, 4-[2-(5-Chloro-2-fluoro-phenyl)-5-methoxy-pyrimidin-4-ylamino]-N-[3-(3-hydroxy-pyrolidin-1-yl)-propyl]-nicotinamide] | 330 nM |
| COc1cnc(-c2cc(Cl)ccc2F)nc1Nc1ccncc1C(=O)NCC(F)F [Compound 36, 4-[2-(5-Chloro-2-fluoro-phenyl)-5-methoxy-pyrimidin-4-ylamino]-N-(2,2-difluoro-ethyl)-nicotinamide] | 670 nM |

same assay, conditions: 10 uM ATP, 170 nM TGFβ R1, room temperature 20 minutes, read-out: IC50 for Kinase Inhibition

| SMILES | IC50 |
| --- | --- |
| CC(C)c1cnc(-c2cc(Cl)ccc2F)nc1Nc1ccncc1C(=O)NC1CC1CO (stereo not drawn) [Compound 179, 4-[2-(5-Chloro-2-fluoro-phenyl)-5-isopropyl-pyrimidin-4-ylamino]-N-(2-hydroxymethyl-cyclopropyl)-nicotinamide] | 5 nM |
| CC(C)c1cnc(-c2cc(Cl)ccc2F)nc1Nc1ccncc1C(=O)NCCCN1CCC[C@H]1C(=O)N(C)C [Compound 171, 4-[2-(5-Chloro-2-fluoro-phenyl)-5-isopropyl-pyrimidin-4-ylamino]-N-[3-(2-dimethylcarbamoyl-pyrrolidin-1-yl)-propyl]-nicotinamide] | 5 nM |
| CC(C)c1cnc(-c2cc(Cl)ccc2F)nc1Nc1ccncc1C(=O)N[C@H]1CCC[C@@H]1O [Compound 247, 4-[2-(5-Chloro-2-fluoro-phenyl)-5-isopropyl-pyrimidin-4-ylamino]-N-(2-hydroxy-cyclopentyl)-nicotinamide] | 40 nM |
| COc1cnc(-c2cc(Cl)ccc2F)nc1Nc1ccncc1C(=O)N1CCOCC1 [Compound 203, {4-[2-(5-Chloro-2-fluoro-phenyl)-5-methoxy-pyrimidin-4-ylamino]-pyridin-3-yl}-morpholin-4-yl-methanone] | 176 nM |
| COc1cnc(-c2cc(Cl)ccc2F)nc1Nc1cc[n+]([O-])cc1C(=O)NC[C@H](C)O [Compound 197, 4-[2-(5-Chloro-2-fluoro-phenyl)-5-methoxy-pyrimidin-4-ylamino]-N-(2-hydroxy-propyl)-1-oxy-nicotinamide] | 675 nM |
| CC(C)c1cnc(-c2cc(Cl)ccc2F)nc1Nc1ccncc1C(=O)NC1C[C@H]1CO (stereo in doubt) [Compound 216, 4-[2-(5-Chloro-2-fluoro-phenyl)-5-isopropyl-pyrimidin-4-ylamino]-N-(2-hydroxymethyl-cyclopropyl)-nicotinamide] | 10 nM |
| CC(O)CNC(=O)c1c[n+]([O-])ccc1Nc1nc(-c2cc(Cl)ccc2F)ncc1C(C)C (stereo not drawn) [Compound 198, 4-[2-(5-Chloro-2-fluoro-phenyl)-5-isopropyl-pyrimidin-4-ylamino]-N-(2-hydroxy-propyl)-1-oxy-nicotinamide] | 148 nM |
| CC(C)c1cnc(-c2cc(Cl)ccc2F)nc1Nc1ccncc1C(=O)N1CC[C@@H](F)C1 [Compound 210, {4-[2-(5-Chloro-2-fluoro-phenyl)-5-isopropyl-pyrimidin-4-ylamino]-pyridin-3-yl}-(3-fluoro-pyrrolidin-1-yl)-methanone] | 121 nM |
